Source: patent publication US8252832B2, “Kinesin inhibitors as cancer therapeutics” (Novartis AG, priority 2007, dated 2012)
Like-named read-outs stand apart in the source and are kept apart here.

Legend:
Assay in all cases: CellTiter-Glo, NCI60 panel
Format in all cases: cell-based
HL-60 = conditions: Leukemia; for GI50: Homo sapiens
Excerpt: (§1) Identification of tumor types that are the most sensitive to the KSP inhibitors of the present invention can be accomplished using an unbiased approach that uses several cell-based assays. The assays chosen were as follows: • CellTiter-Glo®. This is an assay designed to measure ATP concentration in a cell culture, and can be correlated to cell number. Briefly CellTiter-Glo® (Promega Corporation) is a homogeneous method using the single CellTiter-Glo® reagent to detect ATP wherein ATP in the assay drives the activity of a thermostable luciferase to create a luminescent signal which can then be measured and correlated with the number of viable cells. Briefly, for adherent cells, 1,000 to 5,000 cells/well were plated in 96-well plates (100 μl/well) and let to adhere for 24 hours before being treated with drug. For non-adherent cells, 1,000 to 10,000 cells/well were plated in 96-well plates (100 μl/well) and immediately treated with drug. Drug dilutions were prepared in DMSO at 1000 times the final concentration. These dilutions were then diluted 1/100 in growth media before being added to the cells (11 μl/well) to achieve the desired final concentration. After 48 h in a 37° C. tissue culture incubator, the plates were processed for the CellTiter-Glo®assay according to the manufacturer's instructions. Protocol for a 72 hour cell proliferation assay: The 72 hour assay was performed the same way as the 48 hour assay except for the following modifications: For adherent cells, 500 to 5,000 cells/well were plated in 96-well plates (90 μl/well cell growth media) and left to adhere for 24 hours before being treated with drug. For non-adherent cells, 1,000 to 10,000 cells/well were plated in 96-well plates (90 μl/well cell growth media) and immediately treated with drug. Data values presented represent the concentration of test compound required for a 50% reduction in growth. • LDH release. The Cytotoxicity Detection KitPLUS (LDH) assay (Roche Diagnostics, Manheim, Germany) measures the amount of LDH released in the media by dying cells; LDH catalyzes the conversion of lactate into pyruvate. The enzymatic reaction is coupled to a chemical reaction that uses a tetrazolium salt to form a formazan that is red and can be detected by its absorbance at 490 nm. This assay measures the amount of cell death after drug treatment. Cells were plated at 10,000 cells/well in 96-well plates (100 μl/well). Adherent cells were let to adhere for 24 hours before being treated with drug, whereas non-adherent cells were immediately treated with drug. Drug dilutions were prepared in DMSO at 1000 times the final concentration. These dilutions were then diluted 1/100 in growth media before being added to the cells (11 μl/well) to achieve the desired final concentration. After 48 h in a 37° C. tissue culture incubator, the plates were processed for the Cytotoxicity Detection KitPLUS (LDH) assay according to the manufacturer's instructions. The media only values were subtracted from all the data points before analysis. Data values presented correspond to the compound concentration wherein LDH output is at half maximal level. • Caspase-Glo® 3/7. The Caspase-Glo® 3/7 Assay (Promega Corporation) is a homogeneous luminescent assay that measures caspase-3/7 activities. The assay provides a proluminescent caspase-3/7 DEVD-aminoluciferin substrate and a thermostable luciferase in a reagent optimized for caspase-3/7 activity, luciferase activity and cell lysis. Adding the single Caspase-Glo® 3/7 Reagent results in cell lysis, followed by caspase cleavage of the substrate. This liberates free aminoluciferin, which is consumed by the luciferase, generating a luminescent signal. The signal is proportional to caspase-3/7 activity. Data values presented correspond to the compound concentration wherein caspase 3/7 activity is at half maximal level. […]

NCI-H23 = conditions: NSCL; for GI50: Homo sapiens
Excerpt: as §1

SNB-19 = conditions: CNS; for GI50: Homo sapiens
Excerpt: as §1

OVCAR-4 = conditions: Ovarian; for GI50: Homo sapiens
Excerpt: as §1

UACC-257 = conditions: Melanoma; for GI50: Homo sapiens
Excerpt: as §1

HCC-2998 = conditions: Colon; for GI50: Homo sapiens
Excerpt: as §1

MALME-3M = conditions: Melanoma; for GI50: Homo sapiens
Excerpt: as §1

ACHN = conditions: Renal; for GI50: Homo sapiens
Excerpt: as §1

CAKI-1 = conditions: Renal; for GI50: Homo sapiens
Excerpt: as §1

SF-295 = conditions: CNS; for GI50: Homo sapiens
Excerpt: as §1

SK-MEL-28 = conditions: Melanoma; for GI50: Homo sapiens
Excerpt: as §1

NCI-H522 = conditions: NSCL; for GI50: Homo sapiens
Excerpt: as §1

SK-MEL-5 = conditions: Melanoma; for GI50: Homo sapiens
Excerpt: as §1

A498 = conditions: Renal; for GI50: Homo sapiens
Excerpt: as §1

SF-268 = conditions: CNS; for GI50: Homo sapiens
Excerpt: as §1

IGROV1 = conditions: for GI50: Homo sapiens, IGROV-1, Ovarian
Excerpt: as §1

[1] = GI50 in nM, read-out: Log(GI50) (converted)

## CC(C)(C)[C@H](c1nc(-c2cc(F)ccc2F)cn1Cc1ccccc1)N(CC[C@H](N)CF)C(=O)CO [Compound IIa]
HL-60; [1]
  GI50: 0.165 nM
HL-60; read-out: GI50
  GI50: 0.165 nM
HL-60
  Differential vs mean Log(GI50): 1.114
NCI-H23; [1]
  GI50: 0.223 nM
NCI-H23; read-out: GI50
  GI50: 0.223 nM
NCI-H23
  Differential vs mean Log(GI50): 0.983
SNB-19
  Differential vs mean Log(GI50): −0.669
SNB-19; [1]
  GI50: 10 nM
SNB-19; read-out: GI50
  GI50: 10 nM
OVCAR-4; [1]
  GI50: 10 nM
OVCAR-4; read-out: GI50
  GI50: 10 nM
OVCAR-4
  Differential vs mean Log(GI50): −0.669
UACC-257; [1]
  GI50: 10 nM
UACC-257; read-out: GI50
  GI50: 10 nM
UACC-257
  Differential vs mean Log(GI50): −0.669
HCC-2998
  Differential vs mean Log(GI50): 0.547
HCC-2998; [1]
  GI50: 0.608 nM
HCC-2998; read-out: GI50
  GI50: 0.608 nM
MALME-3M; [1]
  GI50: 10 nM
MALME-3M; read-out: GI50
  GI50: 10 nM
MALME-3M
  Differential vs mean Log(GI50): −0.669
ACHN; [1]
  GI50: 10 nM
ACHN; read-out: GI50
  GI50: 10 nM
ACHN
  Differential vs mean Log(GI50): −0.669
CAKI-1; [1]
  GI50: 10 nM
CAKI-1; read-out: GI50
  GI50: 10 nM
CAKI-1
  Differential vs mean Log(GI50): −0.669
SF-295
  Differential vs mean Log(GI50): 1.122
SF-295; [1]
  GI50: 0.162 nM
SF-295; read-out: GI50
  GI50: 0.162 nM
SK-MEL-28; [1]
  GI50: 10 nM
SK-MEL-28; read-out: GI50
  GI50: 10 nM
SK-MEL-28
  Differential vs mean Log(GI50): −0.669
NCI-H522; [1]
  GI50: 0.166 nM
NCI-H522; read-out: GI50
  GI50: 0.166 nM
NCI-H522
  Differential vs mean Log(GI50): 1.111
SK-MEL-5; [1]
  GI50: 10 nM
SK-MEL-5; read-out: GI50
  GI50: 10 nM
SK-MEL-5
  Differential vs mean Log(GI50): −0.669
A498; [1]
  GI50: 10 nM
A498; read-out: GI50
  GI50: 10 nM
A498
  Differential vs mean Log(GI50): −0.669
SF-268
  Differential vs mean Log(GI50): −0.669
SF-268; [1]
  GI50: 10 nM
SF-268; read-out: GI50
  GI50: 10 nM
IGROV1; [1]
  GI50: 10 nM
IGROV1; read-out: GI50
  GI50: 10 nM
IGROV1; Ovarian
  Differential vs mean Log(GI50): −0.669
